The results in this text go back to paper PMC6600273, “Design, Synthesis and Anti-Platelet Aggregation Activity Study of Ginkgolide-1,2,3-triazole Derivatives” (Molecules, 2019).

In the test the test system is PAF-induced platelet aggregation. Nature of the test: In vitro antiplatelet aggregation activity assay (method of Born), PAF-induced platelet aggregation in platelet-rich plasma. Format: cell-based, New Zealand rabbits. The conditions noted are these: for IC50: rabbit PRP, aggregation induced by PAF (10 nM); for antiplatelet aggregation activity, inhibition ratio in primary screening (result in words): inhibition ratio at 50 nM, Figures 3 and 4. The procedure: The in vitro antiplatelet aggregation activity of the newly synthesized 10-substituted 1,2,3-triazole-ginkgolide derivatives was tested by the method of Born. Blood samples (2 mL) from male New Zealand rabbits (2–2.5 kg body weight) were drawn into vacutainer tubes containing 200 μL of 3.2% sodium citrate. Platelet-rich plasma (PRP) was prepared by centrifuging the blood at 250× g for 10 min at 4 °C. The PRP was diluted with platelet-poor plasma obtained by further centrifuging at 3000× g for 10 min. The remaining blood was further centrifuged at 1600× g for 5 min to obtain platelet-poor plasma (PPP) as control group. Platelet aggregation was induced by PAF (10 nM) after incubating platelets with different concentrations of samples, and the maximum rate of platelet aggregation (RPA%) within 5 min was measured with a Helena Platelet aggregometer instrument. The inhibition ratio was calculated according to the following formula:Inhibition ratio (%) = (1−(RPA% of test group) / (RPA% of control group)) × 100%
In primary screening, the activities were expressed directly as inhibition ratio at 50 nM concentration. […] The values shown in the tables were calculated by linear regression from a single experimental curve with no less than four data points, each point being the mean of the percentage inhibition at a given concentration obtained from three independent experiments.

Setting [1] is: Oryctolagus cuniculus, Platelet.

Compound `C[C@@H]1C(=O)O[C@H]2C[C@@]34[C@H]5C[C@@H](C(C)(C)C)[C@]36[C@@H](OC(=O)[C@@H]6O)O[C@@]4(C(=O)O5)[C@]21O` [1′, ginkgolide A, reference compound] registered an IC50 under setting [1] of 580 ± 50.3 nM.

For `CC1C(=O)OC2C(O)C34C5CC(C(C)(C)C)C36C(OC(=O)C6OCc3cn(-c6ccccc6)nn3)OC4(C(=O)O5)C12O` (stereo not shown) [Compound 5a, 10-O-(1-Phenyl-1H-1,2,3-triazole) ginkgolide B], the “antiplatelet aggregation activity, inhibition ratio in primary screening (result in words)” value is recorded as “best results”. Also, half-maximal inhibition under setting [1] (IC50) was put at 7.74 ± 1.89 nM.

For the compound `CC1C(=O)OC2C(O)C34C5CC(C(C)(C)C)C36C(OC(=O)C6OCc3cn(Cc6ccccc6)nn3)OC4(C(=O)O5)C12O` (stereo not shown) [Compound 5ff, 10-O-(1-Benzyl-1H-1,2,3-triazole) ginkgolide B], the “antiplatelet aggregation activity, inhibition ratio in primary screening (result in words)” value was “best results”. The compound further came in with an IC50 under setting [1] of 5.31 ± 1.84 nM. Under “ratio of IC50 values vs ginkgolide B”, the “fold increase in antiplatelet aggregation activity in comparison with natural ginkgolide B (1)” value is listed as approximately 20 fold.

Consider `Cc1ccccc1-n1cc(COC2C(=O)OC3OC45C(=O)OC6CC(C(C)(C)C)C32C64C(O)C2OC(=O)C(C)C25O)nn1` (stereo not shown) [Compound 5n, 10-O-(1-(2-Methylphenyl)-1H-1,2,3-triazole) ginkgolide B], for which the “antiplatelet aggregation activity, inhibition ratio in primary screening (result in words)” value is “best results”. Also, half-maximal inhibition under setting [1] (IC50) was put at 20.6 ± 2.84 nM.

Take `CC1C(=O)OC2C(O)C34C5CC(C(C)(C)C)C36C(OC(=O)C6OCc3cn(-c6ccccc6C#N)nn3)OC4(C(=O)O5)C12O` (stereo not shown) [Compound 5p, 10-O-(1-(2-Cyanophenyl)-1H-1,2,3-triazole) ginkgolide B]: the “antiplatelet aggregation activity, inhibition ratio in primary screening (result in words)” value was “best results”. Under setting [1], this compound displayed an IC50 of 10.2 ± 2.03 nM.

`Cc1cccc(-n2cc(COC3C(=O)OC4OC56C(=O)OC7CC(C(C)(C)C)C43C75C(O)C3OC(=O)C(C)C36O)nn2)c1` (stereo not shown) [Compound 5q, 10-O-(1-(3-Methylphenyl)-1H-1,2,3-triazole) ginkgolide B] gave an IC50 under setting [1] of 44.3 ± 4.42 nM.

For “ginkgolide B [Compound 1, reference compound]”, the half-inhibitory concentration (IC50) was determined as 130 ± 20 nM.

With ginkgolide C [1″, reference compound], it took 7540 ± 662 nM to reach half-maximal inhibition (IC50).
